The text below walks through data of patent US8901171B2, “Compounds for suppressing a peripheral nerve disorder induced by an anti-cancer agent” (Takeda Pharmaceutical Company Limited, priority 2010, dated 2014).

Common to all, as to assay type: in vivo
Data set [1] has as its system Mice (C57BL/6N, male, 8-week-old), peripheral nerve disorders induced by various anti-cancer agents. Briefly: Experimental Example 4: pain threshold of mice given various anti-cancer agents, compound 9′, balance type pressing device (Ugo Basile). The protocol:
Group D was intravenously administered with compound 9′ (1 mg/kg body weight) of Reference Example B dissolved in solution of N methyl-D(−)-glucamine (0.01 mol/L) immediately before intraperitoneal administration of various anti-cancer agents. Pain threshold of each group was measured 3 week after the administration for paclitaxel and 1 week after the administration for the anti-cancer agents other than paclitaxel. Pain threshold is a weighed value (gram) at the time when a false escape response is observed by pressurizing the plantar part of the right hindlimb using a balance type pressing device (Ugo Basile). The values in the Table show mean±standard error of the weighed values, and n is the number of the mice in each group.

For data set [2] the test system is unchanged. In words: Experimental Example 2: pain threshold of mice given various anti-cancer agents, balance type pressing device (Ugo Basile). As to conditions: 1 week after. Here is the method:
Mice (C57BL/6N, male, 8-week-old) were divided into Group A, Group B, and Group C. As Group A, non-treated animals were used. […] Group C was intravenously administered with compound 72 (3 mg/kg body weight) of Reference Example A dissolved in an emulsion containing soybean oil, egg-yolk lecithin, glycerol and the like immediately before intraperitoneal administration of various anti-cancer agents. Thus, neither an enumerated anti- cancer agent nor Compound 72 was administered to Group A; an anti-cancer agent but not Compound 72 was administered to Groups B; and both an anti-cancer agent and Compound 72 were administered to Groups C. Pain threshold of each group was measured 1 week after the administration of the anti-cancer agent. Pain threshold is a weighed value (gram) at the time when a false escape response is observed by pressurizing the plantar part of the right hindlimb using a balance type pressing device (Ugo Basile). The values in the Table show mean ±standard error of the weighed values, and n is the number of the mice in each group.

Data set [3] deals with Mice (C57BL/6N, male, 7-week-old), peripheral nerve disorders induced by paclitaxel. Briefly: Experimental Example 1: pain threshold of paclitaxel-treated mice, balance type pressing device (Ugo Basile). To be noted: mean ± standard error. Here is the method:
Mice (C57BL/6N, male, 7-week-old) were divided into Group A (6 mice), Group B (6 mice), and Group C (6 mice). Group B and Group C were intraperitoneally administered with paclitaxel (dissolved in ethanol:Cremophor EL:saline=0.5:0.5:9; 4 mg/kg body weight). As Group A, non-treated animals were used. Group C was intravenously administered with compound 72 (10 mg/kg body weight) of Reference Example A dissolved in an emulsion containing soybean oil, egg-yolk lecithin, glycerol and the like immediately before and 1 and 2 weeks after intraperitoneal administration of paclitaxel (total 3 times). Thus, neither paclitaxel nor Compound 72 was administered to Group A; paclitaxel but not Compound 72 was administered to Group B; and both paclitaxel and Compound 72 were administered to Group C. Pain threshold of each group was measured 3 weeks after paclitaxel administration to Group B and Group C. Pain threshold is a weighed value (gram) at the time when a false escape response is observed by pressurizing the plantar part of the right hindlimb using a balance type pressing device (Ugo Basile). The values in the Table show mean ±standard error of the weighed values.

Data set [4] concerns Rat (Wistar, male, 5-week-old), peripheral nerve disorders induced by paclitaxel. In words: Experimental Example 3: pain threshold of paclitaxel-treated rats, Electronic von Frey. Here is the method: Rat (Wistar, male, 5-week-old) were divided into Group A, Group B, and Group C. As Group A, non-treated animals were used. To Group B and Group C, paclitaxel is diluted with saline to a given concentration, and intraperitoneally administered at 6 mg/kg body weight for a total of 3 times at intervals of 1 to 2 days. Group C was intravenously administered with compound 72 (10 mg/kg body weight) of Reference Example A dissolved in an emulsion containing soybean oil, egg-yolk lecithin, glycerol and the like immediately before intraperitoneal administration of paclitaxel (total 3 times). Thus, neither paclitaxel nor Compound 72 was administered to Group A; paclitaxel but not Compound 72 was administered to Group B; and both paclitaxel and Compound 72 were administered to Group C. Pain threshold of each group was measured 2 weeks after first paclitaxel administration. Pain threshold is a weighed value (gram) at the time when an avoidance response is observed by pressurizing the plantar part of the right hindlimb using an Electronic von Frey (IITC Life Science). The values in the Table show mean ±standard error of the weighed values, and n is the number of the rats in each group.

With `N.N.O=C([O-])C1(C(=O)[O-])CCC1.[Pt+2]` [Carboplatin, carboplatin, reference compound], the “Pain threshold” value in data set [1] (Group B: anti-cancer agent alone i.p. (docetaxel 3, vincristine 0.1, cisplatin 3, carboplatin 40, bortezomib 0.4 mg/kg), 1 week after) was 110.0 ± 6.8 g; in data set [2] (Group B: anti-cancer agent alone i.p. (docetaxel 3, vincristine 0.1, cisplatin 3, carboplatin 40, bortezomib 0.4 mg/kg), non-treated Group A 365.0 ± 17.8), 110.0 ± 6.8 g.

In the case of `CCOC(=O)C1=CCOC[C@H]1S(=O)(=O)Nc1ccc(F)cc1Cl` [compound 9′, ethyl (3S)-3-[N-(2-chloro-4-fluorophenyl)sulfamoyl]-3,6-dihydro-2H-pyran-4-carboxylate], the “Pain threshold” value in data set [1] (Group D: bortezomib 0.4 mg/kg i.p. + compound 9′ 1 mg/kg i.v. immediately before, 1 week after) came to 256.7 ± 26.5 g; in data set [1] (Group D: carboplatin 40 mg/kg i.p. + compound 9′ 1 mg/kg i.v. immediately before, 1 week after), 176.7 ± 16.7 g; in data set [1] (Group D: cisplatin 3 mg/kg i.p. + compound 9′ 1 mg/kg i.v. immediately before, 1 week after) it was 193.3 ± 26.2 g; in data set [1] (Group D: docetaxel 3 mg/kg i.p. + compound 9′ 1 mg/kg i.v. immediately before, 1 week after), 276.7 ± 38.1 g; in data set [1] (Group D: paclitaxel 10 mg/kg i.p. + compound 9′ 1 mg/kg i.v. immediately before, 3 week after, mean ± standard error), 406.7 ± 61.2 g; in data set [1] (Group D: vincristine 0.1 mg/kg i.p. + compound 9′ 1 mg/kg i.v. immediately before, 1 week after), 306.7 ± 73.5 g.

In the case of `CCOC(=O)C1=CCCC[C@H]1S(=O)(=O)Nc1ccc(F)cc1Cl` [compound 72, ethyl (6R)-6-[N-(2-chloro-4-fluorophenyl)sulfamoyl]-1-cyclohexene-1-carboxylate], the “Pain threshold” value amounted to 306.7 ± 24.0 g in data set [2] (Group C: bortezomib 0.4 mg/kg i.p. + compound 72 3 mg/kg i.v. immediately before, mean ± standard error); 213.3 ± 13.3 g in data set [2] (Group C: carboplatin 40 mg/kg i.p. + compound 72 3 mg/kg i.v. immediately before, mean ± standard error); 166.7 ± 18.5 g in data set [2] (Group C: cisplatin 3 mg/kg i.p. + compound 72 3 mg/kg i.v. immediately before, mean ± standard error); 276.7 ± 17.4 g in data set [2] (Group C: docetaxel 3 mg/kg i.p. + compound 72 3 mg/kg i.v. immediately before, mean ± standard error); 289.2 ± 44.6 g in data set [2] (Group C: vincristine 0.1 mg/kg i.p. + compound 72 3 mg/kg i.v. immediately before, mean ± standard error); 441.7 ± 28.6 g in data set [3] (Group C: paclitaxel 4 mg/kg i.p. + compound 72 10 mg/kg i.v. immediately before and 1 and 2 weeks after (3 times), measured 3 weeks after paclitaxel). Besides, the “Pain threshold” value in data set [4] (Group C: paclitaxel 6 mg/kg i.p. 3 times + compound 72 10 mg/kg i.v. immediately before each, 2 weeks after first paclitaxel, mean ± standard error) stood at 24.9 ± 0.9 g.

Take `CC(=O)O[C@H]1C(=O)[C@@]2(C)[C@H]([C@H](OC(=O)c3ccccc3)[C@]3(O)C[C@H](OC(=O)[C@H](O)[C@@H](NC(=O)c4ccccc4)c4ccccc4)C(C)=C1C3(C)C)[C@]1(OC(C)=O)CO[C@@H]1C[C@@H]2O` [paclitaxel, reference compound]: the “Pain threshold” value in data set [3] (Group B: paclitaxel 4 mg/kg i.p. alone, measured 3 weeks after, non-treated Group A 443.3 ± 32.8) was 185.0 ± 19.3 g; in data set [4] (Group B: paclitaxel 6 mg/kg i.p. 3 times alone, 2 weeks after first administration, non-treated Group A 25.8 ± 0.7), 15.4 ± 2.6 g.
